# Assay results from PubChem BioAssay (NCI).
#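 Method: 48-hour compound exposure of cells in 96-well plates, five concentrations, linear interpolation of endpoints. At the TGI there is no net growth.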
# Tests used:
# Assay in all cases: DTP human tumour cell line panel, 48 h
# SR leukemia = test system: SR leukemia
# XF 498 CNS = test system: XF 498 CNS
# RXF-631 renal = test system: RXF-631 renal
compound,measurement,setting,value
O=C(CC(=O)c1ccccc1)CC(O)(c1ccccc1)c1ccccc1,TGI,SR leukemia,> 100 µM
COc1cc(/C=C/C(=O)O)ccc1C(=O)OCc1ccccc1,TGI,XF 498 CNS,> 100 µM
COC(=O)CN(C)P(=O)(N1CC1)N1CC1,TGI,RXF-631 renal,> 100 µM
